pIC50: −log10 of the molar value.
molecular target: T1, Helicobacter pylori-derived urease (Helicobacter pylori, UniProt P69996); assay: Screening of urease inhibitors (ammonia yield from urea); type: biochemical
T1 construct: an urease solution prepared from Helicobacter pylori; endogenous in cells
Method: Screening of Urease Inhibitors
One hundred (100) μl of 100 mM Bis-Tris buffer (pH 6.5) and 60 μl of an urease solution prepared from Helicobacter pylori were added to 20 μl of a test drug dissolved in 0.1% dimethylformamide solution. The mixture was incubated at room temperature for 30 minutes, and then 20 μl of 100 mM urea was added. The mixture was kept at room temperature for 10 minutes, and then the yielded ammonia in the incubation mixture was measured using a commercial test kit (Ammonia Test Wako®; Wako Pure Chemical). The percent inhibition against the yield of ammonia in the solvent addition group was calculated to obtain the IC50 value.

T1 sequence (P69996 whole entry, looked up): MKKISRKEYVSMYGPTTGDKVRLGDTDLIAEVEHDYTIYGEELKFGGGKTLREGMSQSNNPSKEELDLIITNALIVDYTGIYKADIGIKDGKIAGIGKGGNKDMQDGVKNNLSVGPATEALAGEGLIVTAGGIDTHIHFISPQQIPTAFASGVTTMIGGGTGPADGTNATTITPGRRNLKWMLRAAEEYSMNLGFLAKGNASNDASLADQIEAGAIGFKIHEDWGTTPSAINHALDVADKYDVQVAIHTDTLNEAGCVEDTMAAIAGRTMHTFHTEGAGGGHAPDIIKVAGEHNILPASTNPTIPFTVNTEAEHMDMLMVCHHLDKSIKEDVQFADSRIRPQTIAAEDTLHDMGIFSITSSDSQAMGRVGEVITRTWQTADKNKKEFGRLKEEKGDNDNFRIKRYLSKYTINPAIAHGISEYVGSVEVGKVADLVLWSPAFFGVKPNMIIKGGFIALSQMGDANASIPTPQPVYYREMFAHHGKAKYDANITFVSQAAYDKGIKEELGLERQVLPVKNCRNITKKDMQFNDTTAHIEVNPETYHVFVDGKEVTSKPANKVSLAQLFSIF

With `NP(N)(=O)NC(=O)c1ccc([N+](=O)[O-])s1` [Example 10, N-(Diaminophosphinyl)-5-nitro-thiophenecarboxamide] as the molecule, how does the pIC50 read?
Its pIC50 is 8.44.

With `NP(N)(=O)NC(=O)c1cc2ccccc2o1` [Example 67, N-(Diaminophosphinyl)-2-benzofurancarboxamide] as the molecule, how does the pIC50 read?
The pIC50 was 8.21.

How did the pIC50 turn out when `NP(N)(=O)NC(=O)C=Cc1cc(Br)cs1` [Example 77, N-(Diaminophosphinyl)-3-(4-bromo-2-thienyl)propenamide] was run?
The pIC50 was 8.09.

With `NP(N)(=O)NC(=O)c1cc(Br)cs1` [Example 8, N-(Diaminophosphinyl)-4-bromo-thiophenecarboxamide] as the molecule, how does the pIC50 read?
The pIC50 was 8.37.

With `NP(N)(=O)NC(=O)c1ccc([N+](=O)[O-])cc1` [Reference Example 3, N-(Diaminophosphinyl)-4-nitrobenzamide] as the molecule, how does the pIC50 read?
The pIC50 was 8.18.

How did the pIC50 turn out when `CCc1ccsc1C(=O)NP(N)(N)=O` [Example 27, N-(Diaminophosphinyl)-3-ethyl-2-thiophenecarboxamide] was run?
Its pIC50 is 8.39.

How did the pIC50 turn out when `NP(N)(=O)NC(=O)C=Cc1ccccc1` [Reference Example 4, N-(Diaminophosphinyl)cinnamamide] was run?
Its pIC50 is 8.00.

How did the pIC50 turn out when `NP(N)(=O)NC(=O)c1sccc1Cl` [Example 14, N-(Diaminophosphinyl)-3-chloro-2-thiophenecarboxamide] was run?
The pIC50 was 8.96.

`N#Cc1ccc(OCC(=O)NP(N)(N)=O)cc1` [Example 57, N-(Diaminophosphinyl)-4-cyanophenoxyacetamide] was tested. Which pIC50 did it give?
The pIC50 was 8.12.

`Nc1ccc(OCC(=O)NP(N)(N)=O)cc1` [compound 44, N-(Diaminophosphinyl)-4-aminophenoxyacetamide] was tested. Which pIC50 did it give?
Its pIC50 is 7.96.

With `Cc1sc(C(=O)NP(N)(N)=O)cc1Cl` [Example 34, N-(Diaminophosphinyl)-4-chloro-5-methyl-2-thiophenecarboxamide] as the molecule, how does the pIC50 read?
The pIC50 was 7.92.

`Cc1cc(C(=O)NP(N)(N)=O)sc1Cl` [Example 35, N-(Diaminophosphinyl)-5-chloro-4-methyl-2-thiophenecarboxamide] was tested. Which pIC50 did it give?
The pIC50 was 7.96.

`COc1ccc(C(=O)NP(N)(N)=O)cc1` [Reference Example 12, N-(diaminophosphinyl)-4-methoxybenzamide] was tested. Which pIC50 did it give?
The pIC50 was 7.36.

With `NP(N)(=O)NC(=O)c1ccsc1C(F)F` [Example 20, N-(Diaminophosphinyl)-2-difluoromethyl-3-thiophenecarboxamide] as the molecule, how does the pIC50 read?
Its pIC50 is 8.60.

With `NP(N)(=O)NC(=O)Cc1noc2ccccc12` [Example 75, N-(Diaminophosphinyl)-3-benzisoxazolylacetamide] as the molecule, how does the pIC50 read?
Its pIC50 is 7.66.

`NP(N)(=O)NC(=O)c1sccc1Br` [Example 16, N-(Diaminophosphinyl)-3-bromo-2-thiophenecarboxamide] was tested. Which pIC50 did it give?
Its pIC50 is 9.10.

`COc1csc(C(=O)NP(N)(N)=O)c1` [Example 24, N-(Diaminophosphinyl)-4-methoxy-2-thiophenecarboxamide] was tested. Which pIC50 did it give?
The pIC50 was 8.04.

How did the pIC50 turn out when `NP(N)(=O)NC(=O)COc1cccc(F)c1` [Example 60, N-(Diaminophosphinyl)-3-fluorophenoxyacetamide] was run?
The pIC50 was 8.44.

`NP(N)(=O)NC(=O)CCc1ccc(Cl)cc1` [compound 39, N-(Diaminophosphinyl)-3-(4-chlorophenyl)propionamide] was tested. Which pIC50 did it give?
The pIC50 was 8.23.

With `Cc1cc(C(=O)NP(N)(N)=O)c(C)o1` [Example 49] as the molecule, how does the pIC50 read?
The pIC50 was 7.57.

How did the pIC50 turn out when `NP(N)(=O)NC(=O)CCc1ccc(F)cc1` [Reference Example 38, N-(Diaminophosphinyl)-3-(4-fluorophenyl)propionamide] was run?
The pIC50 was 8.01.

How did the pIC50 turn out when `NP(N)(=O)NC(=O)c1nc2ccccc2s1` [Example 70, N-(Diaminophosphinyl)-2-benzothiazolecarboxamide] was run?
Its pIC50 is 7.89.

With `NP(N)(=O)NC(=O)Cc1cccs1` [Example 80, N-(Diaminophosphinyl)-2-thienylacetamide] as the molecule, how does the pIC50 read?
Its pIC50 is 8.36.

With `NP(N)(=O)NC(=O)c1cc(Br)sc1Cl` [Example 86, N-(Diaminophosphinyl)-5-bromo-2-chloro-3-thiophenecarboxamide] as the molecule, how does the pIC50 read?
Its pIC50 is 9.05.

How did the pIC50 turn out when `NP(N)(=O)NC(=O)c1cccc2ccccc12` [compound 26, N-(Diaminophosphinyl)-1-naphthalenecarboxamide] was run?
Its pIC50 is 7.89.

With `NP(N)(=O)NC(=O)c1ccc(C(F)F)o1` [Example 47, N-(Diaminophosphinyl)-5-difluoromethyl-2-furancarboxamide] as the molecule, how does the pIC50 read?
Its pIC50 is 8.72.

`NP(N)(=O)NC(=O)c1ccc(Br)s1` [Example 6, N-(Diaminophosphinyl)-5-bromo-2-thiophenecarboxamide] was tested. Which pIC50 did it give?
The pIC50 was 8.46.

`N#CC(=Cc1cccs1)C(=O)NP(N)(N)=O` [Example 79, N-(Diaminophosphinyl)-2-cyano-3-(2-thienyl)propenamide] was tested. Which pIC50 did it give?
Its pIC50 is 8.22.

With `Cc1ccc(C(=O)NP(N)(N)=O)cc1` [Reference Example 15, N-(Diaminophosphinyl)-4-methylbenzamide] as the molecule, how does the pIC50 read?
The pIC50 was 7.77.

How did the pIC50 turn out when `NP(N)(=O)NC(=O)c1ccc(C(F)(F)F)cc1` [compound 19, N-(Diaminophosphinyl)-4-trifluoromethylbenzamide] was run?
Its pIC50 is 7.92.

With `NP(N)(=O)NC(=O)Cn1cnc2ccccc21` [Example 83, N-(Diaminophosphinyl)-1-benzimidazolylacetamide] as the molecule, how does the pIC50 read?
The pIC50 was 8.15.

With `NP(N)(=O)NC(=O)C=Cc1nc2ccccc2o1` [Example 69, N-(Diaminophosphinyl)-3-(2-benzoxazolyl)propenamide] as the molecule, how does the pIC50 read?
Its pIC50 is 8.01.

How did the pIC50 turn out when `NP(N)(=O)NC(=O)c1cscc1Br` [Example 37, N-(Diaminophosphinyl)-4-bromo-3-thiophenecarboxamide] was run?
The pIC50 was 8.74.

How did the pIC50 turn out when `NP(N)(=O)NC(=O)CSc1nc2ccccc2s1` [Example 64, N-(Diaminophosphinyl)-2-benzothiazolylthioacetamide] was run?
The pIC50 was 8.54.

How did the pIC50 turn out when `NP(N)(=O)NC(=O)c1csc([N+](=O)[O-])c1` [Example 21, N-(Diaminophosphinyl)-5-nitro-3-thiophenecarboxamide] was run?
Its pIC50 is 8.37.

`NP(N)(=O)NC(=O)C=Cc1cccc(F)c1` [compound 35, N-(Diaminophosphinyl)-3-fluorocinnamamide] was tested. Which pIC50 did it give?
The pIC50 was 7.77.

With `Cc1cc(C(=O)NP(N)(N)=O)c(Cl)s1` [Example 89, N-(Diaminophosphinyl)-2-chloro-5-methyl-3-thiophenecarboxamide] as the molecule, how does the pIC50 read?
Its pIC50 is 8.59.

`NP(N)(=O)NC(=O)c1sc2ccccc2c1Cl` [Example 74, N-(Diaminophosphinyl)-3-chloro-2-benzothiophenecarboxamide] was tested. Which pIC50 did it give?
Its pIC50 is 8.29.

How did the pIC50 turn out when `NP(N)(=O)NC(=O)c1csc(C(F)F)c1` [Example 31, N-(Diaminophosphinyl)-5-difluoromethyl-3-thiophenecarboxamide] was run?
Its pIC50 is 8.15.

`NP(N)(=O)NC(=O)c1cc(Br)c(Br)s1` [Example 7, N-(Diaminophosphinyl)-4,5-dibromo-2-thiophenecarboxamide] was tested. Which pIC50 did it give?
Its pIC50 is 8.37.

With `NP(N)(=O)NC(=O)C=Cc1cccs1` [Example 78, N-(Diaminophosphinyl)-3-(2-thienyl)propenamide] as the molecule, how does the pIC50 read?
Its pIC50 is 8.33.

`NP(N)(=O)NC(=O)c1ccc(F)cc1F` [Reference Example 10, N-(Diaminophosphinyl)-2,4-difluorobenzamide] was tested. Which pIC50 did it give?
The pIC50 was 8.11.

With `Cc1ccsc1C(=O)NP(N)(N)=O` [Example 4, N-(Diaminophosphinyl)-3-methyl-2-thiophenecarboxamide] as the molecule, how does the pIC50 read?
Its pIC50 is 8.17.

`NP(N)(=O)NC(=O)c1cc(Cl)c(Cl)s1` [Example 36, N-(Diaminophosphinyl)-4,5-dichloro-2-thiophenecarboxamide] was tested. Which pIC50 did it give?
The pIC50 was 8.13.

With `NP(N)(=O)NC(=O)C=Cc1ccc(Cl)cc1` [compound 31, N-(Diaminophosphinyl)-4-chlorocinnamamide] as the molecule, how does the pIC50 read?
Its pIC50 is 7.15.

With `NP(N)(=O)NC(=O)c1ccccc1C(F)(F)F` [compound 24, N-(Diaminophosphinyl)-2-trifluoromethylbenzamide] as the molecule, how does the pIC50 read?
The pIC50 was 8.10.

With `NP(N)(=O)NC(=O)c1ccccc1F` [Reference Example 16, N-(Diaminophosphinyl)-2-fluorobenzamide] as the molecule, how does the pIC50 read?
Its pIC50 is 8.57.

How did the pIC50 turn out when `NP(N)(=O)NC(=O)COc1cccc(Cl)c1` [Example 58, N-(Diaminophosphinyl)-3-chlorophenoxyacetamide] was run?
Its pIC50 is 8.52.

With `Cc1ccc2c(Cl)c(C(=O)NP(N)(N)=O)sc2c1` [Example 71, N-(Diaminophosphinyl)-3-chloro-6-methylbenzothiophenecarboxamide] as the molecule, how does the pIC50 read?
The pIC50 was 8.72.

How did the pIC50 turn out when `Cc1cc(C)c(C)c(OCC(=O)NP(N)(N)=O)c1` [Example 56, N-(Diaminophosphinyl)-2,3,5-trimethylphenoxyacetamide] was run?
The pIC50 was 7.39.

How did the pIC50 turn out when `Cc1onc(-c2ccccc2)c1C(=O)NP(N)(N)=O` [Example 73, N-(Diaminophosphinyl)-5-methyl-3-phenyl-4-isoxazolecarboxamide] was run?
Its pIC50 is 7.26.

How did the pIC50 turn out when `NP(N)(=O)NC(=O)c1cccc(F)c1` [Reference Example 8, N-(Diaminophosphinyl)-3-fluorobenzamide] was run?
Its pIC50 is 8.35.

How did the pIC50 turn out when `Cc1nc2cc(C(=O)NP(N)(N)=O)ccc2o1` [Example 68, N-(Diaminophosphinyl)-2-methyl-5-benzoxazolecarboxamide] was run?
The pIC50 was 7.74.

`NP(N)(=O)NC(=O)Cc1ccsc1` [Example 81, N-(Diaminophosphinyl)-3-thienylacetamide] was tested. Which pIC50 did it give?
The pIC50 was 8.10.

With `COc1ccc(OCC(=O)NP(N)(N)=O)cc1` [Example 53, N-(Diaminophosphinyl)-4-methoxyphenoxyacetamide] as the molecule, how does the pIC50 read?
Its pIC50 is 8.10.

`NP(N)(=O)NC(=O)CCc1ccccc1` [Reference Example 37, N-(Diaminophosphinyl)-3-phenylpropionamide] was tested. Which pIC50 did it give?
The pIC50 was 7.77.

How did the pIC50 turn out when `N#Cc1ccc(CCC(=O)NP(N)(N)=O)cc1` [compound 40, N-(Diaminophosphinyl)-3-(4-cyanophenyl)propionamide] was run?
The pIC50 was 7.74.

With `Cc1oc(Cl)cc1C(=O)NP(N)(N)=O` [Example 50, N-(Diaminophosphinyl)-5-chloro-2-methyl-3-furancarboxamide] as the molecule, how does the pIC50 read?
The pIC50 was 8.12.

With `NP(N)(=O)NC(=O)c1cc(F)cc(F)c1` [compound 21, N-(Diaminophosphinyl)-3,5-difluorobenzamide] as the molecule, how does the pIC50 read?
The pIC50 was 8.10.

— patent publication US5840917A, “Phosphorylamides, their preparation and use” (Takeda Chemical Industries, Ltd., priority 1995, dated 1998)
